Reference: US20250051277A1, “DELIVERY OF THERAPEUTIC ALKALOID COMPOUNDS” (Sensorium Therapeutics, Inc., priority 2021, published 2025)
Where two headings read alike, the source gives them in different places.

Legend:
[1] = 5 μM
[2] = 5 μM; remark: listed apart in the source
[3] = format: physicochemical; details: DI water, 25° C., 0.5 mM
[4] = format: physicochemical; details: SGF with pepsin, pH 1.5, 37° C., 0.5 mM
[5] = 10 μM
Protocol: (§1) 50 μL aliquots of positive controls and test compounds spiked into rat or human plasma (n=2) were added to a pre-warmed plate (37° C.) and shaken at 50 rpm. At each respective time point, the reaction was stopped by adding 500 μL of acetonitrile containing internal standards (100 nM aprozolam, 200 nM caffeine, 100 nM tolbutamide). All samples were vortexed for 10 minutes, followed by centrifugation at 3,220 g for 30 minutes to precipitate proteins. 100 μL of the supernatant is transferred to a new plate. The supernatant will be diluted with ultrapure water according to the LC-MS signal response and peak shape.

[6] = Plasma Stability Assay of Example A3, human plasma; details: 5 μM, 37° C., % of prodrug compound remaining
[7] = 10 μM; remark: listed apart in the source
Protocol: as §1

[8] = Plasma Stability Assay of Example A3, mouse plasma; details: 5 μM, 37° C., % of prodrug compound remaining

## COc1ccc([C@@]23CCC(=NNC(=O)Nc4ccc(C(=O)O)cc4)C[C@@H]2N(C)CC3)cc1OC (racemic) [Compound 259, 4-[[[(3aS,7aS)-3a-(3,4-dimethoxyphenyl)-1-methyl-2,3,4,5,7,7a-hexahydroindol-6-ylidene]amino]carbamoylamino]benzoic acid]
[1]; 0 min
  Human Plasma Prodrug (%): 100%
[1]; 15 min
  Human Plasma Prodrug (%): >99%
[1]; 30 min
  Human Plasma Prodrug (%): 96.6%
[1]; 60 min
  Human Plasma Prodrug (%): 85.7%
[1]; 120 min
  Human Plasma Prodrug (%): 70.0%
[1]; 240 min
  Human Plasma Prodrug (%): 54.3%
[2]; 0 min
  Mouse Plasma Prodrug (%): 100%
[2]; 15 min
  Mouse Plasma Prodrug (%): 86.2%
[2]; 30 min
  Mouse Plasma Prodrug (%): 81.0%
[2]; 60 min
  Mouse Plasma Prodrug (%): 67.6%
[2]; 120 min
  Mouse Plasma Prodrug (%): 38.7%
[2]; 240 min
  Mouse Plasma Prodrug (%): 19.8%
[3]; time 1 min
  Condition 2 Conversion (%): 0%
[3]; time 5 min
  Condition 2 Conversion (%): 0%
[3]; time 30 min
  Condition 2 Conversion (%): 0%
[3]; time 1 h
  Condition 2 Conversion (%): 2%
[3]; time 4 h
  Condition 2 Conversion (%): 4.3%
[3]; time 24 h
  Condition 2 Conversion (%): 7.8%
[4]; time 1 min
  Condition 1 Conversion (%): 3.6%
[4]; time 5 min
  Condition 1 Conversion (%): 4.1%
[4]; time 30 min
  Condition 1 Conversion (%): 16.5%
[4]; time 1 h
  Condition 1 Conversion (%): 25%
[4]; time 4 h
  Condition 1 Conversion (%): 29.5%
[4]; time 24 h
  Condition 1 Conversion (%): 31.9%

## COc1ccc([C@@]23CCC(OC(=O)c4ccccc4C)=C[C@@H]2N(C)CC3)cc1OC [Compound 298, [(3aS,7aS)-3a-(3,4-dimethoxyphenyl)-1-methyl-3,4,5,7a-tetrahydro-2H-indol-6-yl]2-methylbenzoate]
[1]; 0 min
  Human Plasma Prodrug (%): 100.0%
[1]; 15 min
  Human Plasma Prodrug (%): >99%
[1]; 60 min
  Human Plasma Prodrug (%): 97.5%
[1]; 240 min
  Human Plasma Prodrug (%): 90.9%
[2]; 15 min
  Mouse Plasma Compound 001 (%): 34.0%
[2]; 30 min
  Mouse Plasma Compound 001 (%): 44.5%
[2]; 60 min
  Mouse Plasma Compound 001 (%): 60.1%
[2]; 120 min
  Mouse Plasma Compound 001 (%): 64.3%
[2]; 240 min
  Mouse Plasma Compound 001 (%): 64.8%
[3]; time 1 min
  Condition 2 Conversion (%): 0%
[3]; time 5 min
  Condition 2 Conversion (%): 0%
[3]; time 30 min
  Condition 2 Conversion (%): 0%
[3]; time 1 h
  Condition 2 Conversion (%): 0%
[3]; time 4 h
  Condition 2 Conversion (%): 0%
[3]; time 24 h
  Condition 2 Conversion (%): 0%
[4]; time 1 min
  Condition 1 Conversion (%): 0%
[4]; time 5 min
  Condition 1 Conversion (%): 0%
[4]; time 30 min
  Condition 1 Conversion (%): 0%
[4]; time 1 h
  Condition 1 Conversion (%): 0%
[4]; time 4 h
  Condition 1 Conversion (%): 0%
[4]; time 24 h
  Condition 1 Conversion (%): 0%

## COc1ccc([C@@]23CCC(OC(=O)c4ccc(C(C)C)cc4)=C[C@@H]2N(C)CC3)cc1OC [Compound 371, (3aS,7aS)-3a-(3,4-dimethoxyphenyl)-1-methyl-2,3,3a,4,5,7a-hexahydro-1H-indol-6-yl4-isopropylbenzoate]
[5]; 0 h
  Prodrug (%) remaining, Rat Plasma: 100.0%
[5]; 10 min
  Prodrug (%) remaining, Rat Plasma: 5.0%
[5]; 0.5 h
  Prodrug (%) remaining, Rat Plasma: 0.2%
[5]; 1 h
  Prodrug (%) remaining, Rat Plasma: 0.1%
[5]; 2 h
  Prodrug (%) remaining, Rat Plasma: 0.0%
[5]; 4 h
  Prodrug (%) remaining, Rat Plasma: 0.0%
[1]; 0 min
  Human Plasma Compound 001 (%): 0.00%
[1]; 60 min
  Human Plasma Compound 001 (%): 2.67%
[1]; 120 min
  Human Plasma Compound 001 (%): 5.08%
[1]; 240 min
  Human Plasma Compound 001 (%): 3.85%
[6]; 0 min
  Human Plasma Prodrug (%): 100%
[6]; 15 min
  Human Plasma Prodrug (%): 99%
[6]; 30 min
  Human Plasma Prodrug (%): 92%
[6]; 60 min
  Human Plasma Prodrug (%): 87%
[6]; 120 min
  Human Plasma Prodrug (%): 78%
[6]; 240 min
  Human Plasma Prodrug (%): 27%
[2]; 0 min
  Mouse Plasma Compound 001 (%): 28.4%
[2]; 15 min
  Mouse Plasma Compound 001 (%): 31.54%
[2]; 30 min
  Mouse Plasma Compound 001 (%): 29.63%
[2]; 60 min
  Mouse Plasma Compound 001 (%): 30.25%
[2]; 120 min
  Mouse Plasma Compound 001 (%): 26.59%
[2]; 240 min
  Mouse Plasma Compound 001 (%): 19.82%
[7]; 0 h
  Prodrug (%) remaining, Human Plasma: 100.0%
[7]; 10 min
  Prodrug (%) remaining, Human Plasma: >99%
[7]; 0.5 h
  Prodrug (%) remaining, Human Plasma: 94.4%
[7]; 1 h
  Prodrug (%) remaining, Human Plasma: 90.7%
[7]; 2 h
  Prodrug (%) remaining, Human Plasma: 91.3%
[7]; 4 h
  Prodrug (%) remaining, Human Plasma: 78.0%
[8]; 0 min
  Mouse Plasma Prodrug (%): 100%
[8]; 15 min
  Mouse Plasma Prodrug (%): 10%
[8]; 30 min
  Mouse Plasma Prodrug (%): 0%
[8]; 60 min
  Mouse Plasma Prodrug (%): 0%
[8]; 120 min
  Mouse Plasma Prodrug (%): 0%
[8]; 240 min
  Mouse Plasma Prodrug (%): 0%

## COc1ccc([C@@]23CCC(OC(=O)c4c(C)cccc4C)=C[C@@H]2N(C)CC3)cc1OC [Compound 372, (3aS,7aS)-3a-(3,4-dimethoxyphenyl)-1-methyl-2,3,3a,4,5,7a-hexahydro-1H-indol-6-yl2,6-dimethylbenzoate]
[5]; 0 h
  Prodrug (%) remaining, Rat Plasma: 100.0%
[5]; 10 min
  Prodrug (%) remaining, Rat Plasma: >99%
[5]; 0.5 h
  Prodrug (%) remaining, Rat Plasma: >99%
[5]; 1 h
  Prodrug (%) remaining, Rat Plasma: >99%
[5]; 2 h
  Prodrug (%) remaining, Rat Plasma: 98.4%
[5]; 4 h
  Prodrug (%) remaining, Rat Plasma: >99%
[1]; 0 min
  Human Plasma Compound 001 (%): 0.00%
[6]; 0 min
  Human Plasma Prodrug (%): 100%
[6]; 15 min
  Human Plasma Prodrug (%): 97%
[6]; 30 min
  Human Plasma Prodrug (%): 99%
[6]; 60 min
  Human Plasma Prodrug (%): 94%
[6]; 120 min
  Human Plasma Prodrug (%): 81%
[6]; 240 min
  Human Plasma Prodrug (%): 38%
[2]; 0 min
  Mouse Plasma Compound 001 (%): 0%
[7]; 0 h
  Prodrug (%) remaining, Human Plasma: 100.0%
[7]; 10 min
  Prodrug (%) remaining, Human Plasma: >99%
[7]; 0.5 h
  Prodrug (%) remaining, Human Plasma: >99%
[7]; 1 h
  Prodrug (%) remaining, Human Plasma: >99%
[7]; 2 h
  Prodrug (%) remaining, Human Plasma: >99%
[7]; 4 h
  Prodrug (%) remaining, Human Plasma: >99%
[8]; 0 min
  Mouse Plasma Prodrug (%): 100%
[8]; 15 min
  Mouse Plasma Prodrug (%): 92%
[8]; 30 min
  Mouse Plasma Prodrug (%): 91%
[8]; 60 min
  Mouse Plasma Prodrug (%): 88%
[8]; 120 min
  Mouse Plasma Prodrug (%): 73%
[8]; 240 min
  Mouse Plasma Prodrug (%): 64%

## COc1ccc([C@@]23CCC(OC(=O)c4cccc(C)c4C)=C[C@@H]2N(C)CC3)cc1OC [Compound 373, (3aS,7aS)-3a-(3,4-dimethoxyphenyl)-1-methyl-2,3,3a,4,5,7a-hexahydro-1H-indol-6-yl2,3-dimethylbenzoate]
[5]; 0 h
  Prodrug (%) remaining, Rat Plasma: 100.0%
[5]; 10 min
  Prodrug (%) remaining, Rat Plasma: 81.0%
[5]; 0.5 h
  Prodrug (%) remaining, Rat Plasma: 58.4%
[5]; 1 h
  Prodrug (%) remaining, Rat Plasma: 26.8%
[5]; 2 h
  Prodrug (%) remaining, Rat Plasma: 5.2%
[5]; 4 h
  Prodrug (%) remaining, Rat Plasma: 1.3%
[1]; 0 min
  Human Plasma Compound 001 (%): 0%
[6]; 0 min
  Human Plasma Prodrug (%): 100%
[6]; 15 min
  Human Plasma Prodrug (%): 93.9%
[6]; 30 min
  Human Plasma Prodrug (%): 96.5%
[6]; 60 min
  Human Plasma Prodrug (%): 81.4%
[6]; 120 min
  Human Plasma Prodrug (%): 66.1%
[6]; 240 min
  Human Plasma Prodrug (%): 17.2%
[7]; 0 h
  Prodrug (%) remaining, Human Plasma: 100.0%
[7]; 10 min
  Prodrug (%) remaining, Human Plasma: 96.3%
[7]; 0.5 h
  Prodrug (%) remaining, Human Plasma: >99%
[7]; 1 h
  Prodrug (%) remaining, Human Plasma: 94.8%
[7]; 2 h
  Prodrug (%) remaining, Human Plasma: 89.9%
[7]; 4 h
  Prodrug (%) remaining, Human Plasma: 96.3%
[8]; 0 min
  Mouse Plasma Prodrug (%): 100%
[8]; 15 min
  Mouse Plasma Prodrug (%): 82%
[8]; 30 min
  Mouse Plasma Prodrug (%): 64%
[8]; 60 min
  Mouse Plasma Prodrug (%): 41%
[8]; 120 min
  Mouse Plasma Prodrug (%): 12%
[8]; 240 min
  Mouse Plasma Prodrug (%): 1%

## COc1ccc([C@@]23CCC(OC(=O)c4cccc(C)c4)=C[C@@H]2N(C)CC3)cc1OC [Compound 374, (3aS,7aS)-3a-(3,4-dimethoxyphenyl)-1-methyl-2,3,3a,4,5,7a-hexahydro-1H-indol-6-yl3-methylbenzoate]
[5]; 0 h
  Prodrug (%) remaining, Rat Plasma: 100.0%
[5]; 10 min
  Prodrug (%) remaining, Rat Plasma: 9.7%
[5]; 0.5 h
  Prodrug (%) remaining, Rat Plasma: 0.3%
[5]; 1 h
  Prodrug (%) remaining, Rat Plasma: 0.1%
[5]; 2 h
  Prodrug (%) remaining, Rat Plasma: 0.0%
[5]; 4 h
  Prodrug (%) remaining, Rat Plasma: 0.0%
[1]; 0 min
  Human Plasma Compound 001 (%): 0.00%
[1]; 30 min
  Human Plasma Compound 001 (%): 3.19%
[1]; 60 min
  Human Plasma Compound 001 (%): 5.92%
[1]; 120 min
  Human Plasma Compound 001 (%): 9.01%
[1]; 240 min
  Human Plasma Compound 001 (%): 7.54%
[6]; 0 min
  Human Plasma Prodrug (%): 100%
[6]; 15 min
  Human Plasma Prodrug (%): 98%
[6]; 30 min
  Human Plasma Prodrug (%): 88%
[6]; 60 min
  Human Plasma Prodrug (%): 84%
[6]; 120 min
  Human Plasma Prodrug (%): 62%
[6]; 240 min
  Human Plasma Prodrug (%): 11%
[7]; 0 h
  Prodrug (%) remaining, Human Plasma: 100.0%
[7]; 10 min
  Prodrug (%) remaining, Human Plasma: >99%
[7]; 0.5 h
  Prodrug (%) remaining, Human Plasma: >99%
[7]; 1 h
  Prodrug (%) remaining, Human Plasma: >99%
[7]; 2 h
  Prodrug (%) remaining, Human Plasma: >99%
[7]; 4 h
  Prodrug (%) remaining, Human Plasma: 95.4%
[8]; 0 min
  Mouse Plasma Prodrug (%): 100%
[8]; 15 min
  Mouse Plasma Prodrug (%): 33%
[8]; 30 min
  Mouse Plasma Prodrug (%): 4%
[8]; 60 min
  Mouse Plasma Prodrug (%): 0%
[8]; 120 min
  Mouse Plasma Prodrug (%): 0%
[8]; 240 min
  Mouse Plasma Prodrug (%): 0%
